The test system of test [1] is HBV-specific CD8+ T cells from CHB patient PBMCs. Kind of test: HBV-specific CD8+ T cell expansion and recall response assay in CHB patient PBMCs (IFN-γ, granzyme B by flow cytometry). It is filed as cell-based, human. The protocol: (§1) Assays PBMC Isolation from Whole Blood PBMCs were isolated from whole blood using a standard Ficoll® Paque gradient. Briefly, 25-30 mL of blood was gently overlaid on top of 15 mL Ficoll® Paque Plus solution (GE Healthcare, Chicago, Ill.) in a 50 mL Falcon tube, and centrifuged in an Allegra X-14R (Beckman Coulter, Indianapolis, Ind.) at 520 g for 20 minutes at 25° C. […] Next, the cells were centrifuged at 520 g for 5 minutes and red blood cells (RBC) lysed for 5 minutes at room temperature using RBC Lysis Buffer (eBioscience, San Diego, Calif.). […] PBMCs were either subsequently used for the T cell expansion assay, or were cryopreserved with 10% DMSO in PBS before further use. CD8^+ and CD4^+ T Cell 7-Day Expansion and Recall Response Assay
(§2) PBMCs were seeded at 2-4×10^5 cells/well in 96-well round bottom plates (Corning, N.Y.). […] PBMCs were incubated for 7 days at 37° C. with 5% CO2 in a humidified incubator. […] To inhibit protein transport, 1 μg/mL brefeldin. A solution (Sigma) was added to each well. After overnight incubation, cells were processed for immunostaining and flow cytometry as described herein.
(§3) Washed cells were resuspended in Live/Dead Aquamine Stain (Invitrogen) per manufacturer's instructions to determine the viability of the cells by flow cytometry. Live/Dead Aqua stained PBMCs were washed twice with FACS staining buffer (1% FBS in PBS), and then incubated with 50 μL of Fc blocking reagent (BD Biosciences, Franklin Lakes, N.J.) for 10 minutes at room temperature. A mixture of antibodies (50 μL/well) described in Table 6 were added to the blocking solution for surface staining, and PBMCs were incubated with the antibodies for 40 minutes at 4° C. […] Cells were washed twice with the permeabilization reagent included in the FoxP3 staining kit and incubated with antibodies for intracellular staining of IFN-γ and GrB (Table 6) at 1.0 μg/mL. After 1 hour incubation at 4° C., PBMCs were centrifuged and washed twice before being resuspended in FACS buffer. Stained PBMCs were analyzed by flow cytometry using a BD LSRFortessa X-20 Cell Analyzer (Becton Dickinson). BD Comp Beads (BD Biosciences) were used as compensation controls. CD8^+ and CD4^+ T cells were identified by gating on the live Aquamine^−CD3^+CD8^+ and Aquamine^−CD3^+CD4^+ PBMC population respectively.
(§4) Flow cytometry data was analyzed using FlowJo Flow Cytometry Analysis Software v10 (TreeStar, Ashland, Oreg.). Data was exported and statistical analysis was performed using GraphPad Prism v6 (GraphPad Software, La Jolla, Calif.). Statistical significance relative to the DMSO control was calculated by two-tailed, paired t-test.
(In general: A flow cytometer gives signals particle by particle.)

Test [2] concerns HBV-specific CD4+ T cells from CHB patient PBMCs. The test is described as follows: HBV-specific CD4+ T cell expansion and recall response assay in CHB patient PBMCs (IFN-γ, granzyme B by flow cytometry). In kind it is cell-based, human. The protocol: as §1, §2, §3, §4
The mark [3] stands for this setting: 650 nM compound 139 or 10 μg/mL durvalumab, PBMCs from 9 of the 14 CHB donors (FIG. 1B).

Results on 1 compound are retold here after patent US11555029B2, “PD-1/PD-L1 inhibitors” (Gilead Sciences, Inc., priority 2018, dated 2023).

The structures appear in SMILES notation. Several values for one entry are separate records, joined by “and”; a condition that tells them apart may be missing. Identical values can stand only once.

Turning to `COc1nc(-c2cccc(-c3cccc(-c4cnc(CNC[C@@H]5CCC(=O)N5)c(OC)n4)c3Cl)c2Cl)cnc1CNC[C@@H]1CCC(=O)N1` [compound 139], in test [1] (650 nM compound 139, HBV core peptide-stimulated PBMCs from 14 CHB donors, vs DMSO), the “increase of granzyme B (GrB)+ CD8+ T cells” value came to 1.2 fold. Further, in test [1] (setting [3]), the “increase of GrB+CD8+ T cells, comparison with durvalumab” value was 1.2 fold and the “increase of IFN-γ+CD8+ T cells, comparison with durvalumab” value turned out to be 2.5 fold. Further, the “IFN-γ and Granzyme B Production in chronic hepatitis B (CHB) CD8+ T Cells” value in test [1] (FIG. 1A and FIG. 1B) is listed as “enhances”. Also, the “% IFN-γ+ (IFN-γ+ CD8+ T cells)” value in test [1] (individual CHB donor, HBV core peptide-stimulated PBMCs, compound 139 650 nM) was 0.94% and 0.41% and 0.61% and 0.90% and 0.30%. In addition, in test [2] (650 nM compound 139, HBV core peptide-stimulated PBMCs from CHB donors, vs DMSO), the “increase of granzyme B (GrB)+ CD4+ T cells” value was 1.8 fold. Moreover, in test [2] (650 nM compound 139 or 10 μg/mL durvalumab treated PBMCs), the “frequency of CD4+ IFN-γ+ T cells” value was found to be 2.5%. The “frequency of GrB+CD4+ T cells” value in test [2] (650 nM compound 139 or 10 μg/mL durvalumab, DMSO 3.5%) was found to be 4.7%. In test [2] (FIG. 2A and FIG. 2B), the “IFN-γ and Granzyme B Production in chronic hepatitis B (CHB) CD4+ T Cells” value is recorded as “enhances”.
